Source: US12077503B2, “Substituted cyclic amides and their use as herbicides” (FMC CORPORATION, priority 2015, dated 2024)

Legend:
Assay type in all cases: in vivo
[1] = test system: redroot pigweed (Amaranthus retroflexus); assay: Test G Pre-Emergence Protocol; details: Amaranthus retroflexus, pre-emergence, 312 h, evaluated after 13 days; for pest or weed control at 15.625 g/ha: 15.625 g ai/ha; for pest or weed control at 15.625 g/ha / pest or weed control at 250 g/ha: read-out: Pigweed, Redroot damage rating (100=total damage to plant; 0=no damage to plant); for pest or weed control at 62.5 g/ha: 62.5 g ai/ha, 100=total damage to plant, 0=no damage to plant, read-out: plant damage rating, Pigweed, Redroot; for pest or weed control at 250 g/ha: 250 g ai/ha
In short: (§1)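 Test compound in 0.5% Tween 20 acetone/water (50:50) was applied at three rates (15.625, 62.5, 250 g/ha) to soil sown one day earlier. After 13 days plants were scored for injury, where 0 means unaffected and 100 means completely damaged.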

[2] = test system: corn (Zea mays); assay: Test G Pre-Emergence Protocol; details: Zea mays, pre-emergence, 312 h, evaluated after 13 days; for plant injury at 15.625 g/ha: 15.625 g ai/ha; for plant injury at 15.625 g/ha / plant injury at 250 g/ha: read-out: Corn damage rating (100=total damage to plant; 0=no damage to plant); for plant injury at 62.5 g/ha: 62.5 g ai/ha, 100=total damage to plant, 0=no damage to plant, read-out: plant damage rating, Corn; for plant injury at 250 g/ha: 250 g ai/ha
In short: as §1

[3] = test system: velvetleaf (Abutilon theophrasti); assay: Test G Pre-Emergence Protocol; details: Abutilon theophrasti, pre-emergence, 312 h, evaluated after 13 days; for pest or weed control at 15.625 g/ha: 15.625 g ai/ha; for pest or weed control at 15.625 g/ha / pest or weed control at 250 g/ha: read-out: Velvetleaf damage rating (100=total damage to plant; 0=no damage to plant); for pest or weed control at 62.5 g/ha: 62.5 g ai/ha, 100=total damage to plant, 0=no damage to plant, read-out: plant damage rating, Velvetleaf; for pest or weed control at 250 g/ha: 250 g ai/ha
In short: as §1

[4] = test system: ivy-leaved morning glory (Ipomoea hederacea); assay: Test G Pre-Emergence Protocol; details: Ipomoea, pre-emergence, 312 h, evaluated after 13 days; for pest or weed control at 15.625 g/ha: 15.625 g ai/ha, read-out: Morning-glory, Ivy-leaved damage rating (100=total damage to plant; 0=no damage to plant); for pest or weed control at 62.5 g/ha: 62.5 g ai/ha, 100=total damage to plant, 0=no damage to plant, read-out: plant damage rating, Morningglory, Ivy-leaved; for pest or weed control at 250 g/ha: 250 g ai/ha, read-out: Morningglory, Ivy-leaved damage rating (100=total damage to plant; 0=no damage to plant)
In short: as §1

[5] = test system: barnyardgrass (Echinochloa crus-galli); assay: Test G Pre-Emergence Protocol; details: Echinochloa crus-galli, pre-emergence, 312 h, evaluated after 13 days; for pest or weed control at 15.625 g/ha: 15.625 g ai/ha, read-out: Barnyard grass damage rating (100=total damage to plant; 0=no damage to plant); for pest or weed control at 62.5 g/ha: 62.5 g ai/ha, 100=total damage to plant, 0=no damage to plant, read-out: plant damage rating, Barnyardgrass; for pest or weed control at 250 g/ha: 250 g ai/ha, read-out: Barnyardgrass damage rating (100=total damage to plant; 0=no damage to plant)
In short: as §1

[6] = test system: giant foxtail (Setaria faberi); assay: Test G Pre-Emergence Protocol; details: Setaria faberi, pre-emergence, 312 h, evaluated after 13 days; for pest or weed control at 15.625 g/ha: 15.625 g ai/ha; for pest or weed control at 15.625 g/ha / pest or weed control at 250 g/ha: read-out: Foxtail, Giant damage rating (100=total damage to plant; 0=no damage to plant); for pest or weed control at 62.5 g/ha: 62.5 g ai/ha, 100=total damage to plant, 0=no damage to plant, read-out: plant damage rating, Foxtail, Giant; for pest or weed control at 250 g/ha: 250 g ai/ha
In short: as §1

[7] = test system: redroot pigweed (Amaranthus retroflexus); assay: Test G Post-Emergence Protocol; details: Amaranthus retroflexus, post-emergence, 312 h; for pest or weed control at 15.625 g/ha: 15.625 g ai/ha, evaluated after 13 days (100=total damage to plant; 0=no damage to plant), read-out: Pigweed, Redroot damage rating; for pest or weed control at 62.5 g/ha: 62.5 g ai/ha, read-out: Pigweed, Redroot damage rating (100=total damage to plant; 0=no damage to plant); for pest or weed control at 62.5 g/ha / pest or weed control at 250 g/ha: evaluated after 13 days; for pest or weed control at 250 g/ha: 250 g ai/ha, read-out: damage to plant, Pigweed, Redroot (100=total damage to plant; 0=no damage to plant)
In short: (§2)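 Seedlings grown 8 days in soil in a glasshouse (24/16 °C day/night, 14 h light, 65% humidity) were sprayed post-emergence with compound in acetone/water 50:50 plus 0.5% Tween 20 at 15.625, 62.5 or 250 g/ha. Damage was scored after 13 days on a 0–100 scale (100 = total damage).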

[8] = test system: corn (Zea mays); assay: Test G Post-Emergence Protocol; details: Zea mays, post-emergence, 312 h; for plant injury at 15.625 g/ha: 15.625 g ai/ha, evaluated after 13 days (100=total damage to plant; 0=no damage to plant), read-out: Corn damage rating; for plant injury at 62.5 g/ha: 62.5 g ai/ha, read-out: Corn damage rating (100=total damage to plant; 0=no damage to plant); for plant injury at 62.5 g/ha / plant injury at 250 g/ha: evaluated after 13 days; for plant injury at 250 g/ha: 250 g ai/ha, read-out: damage to plant, Corn (100=total damage to plant; 0=no damage to plant)
In short: as §2

[9] = test system: velvetleaf (Abutilon theophrasti); assay: Test G Post-Emergence Protocol; details: Abutilon theophrasti, post-emergence, 312 h; for pest or weed control at 15.625 g/ha: 15.625 g ai/ha, evaluated after 13 days (100=total damage to plant; 0=no damage to plant), read-out: Velvetleaf damage rating; for pest or weed control at 62.5 g/ha: 62.5 g ai/ha, read-out: Velvetleaf damage rating (100=total damage to plant; 0=no damage to plant); for pest or weed control at 62.5 g/ha / pest or weed control at 250 g/ha: evaluated after 13 days; for pest or weed control at 250 g/ha: 250 g ai/ha, read-out: damage to plant, Velvetleaf (100=total damage to plant; 0=no damage to plant)
In short: as §2

[10] = test system: ivy-leaved morning glory (Ipomoea hederacea); assay: Test G Post-Emergence Protocol; details: Ipomoea, post-emergence, 312 h; for pest or weed control at 15.625 g/ha: 15.625 g ai/ha, evaluated after 13 days (100=total damage to plant; 0=no damage to plant), read-out: Morningglory, Ivy-leaved damage rating; for pest or weed control at 62.5 g/ha: 62.5 g ai/ha, read-out: Morningglory, Ivy-leaved damage rating (100=total damage to plant; 0=no damage to plant); for pest or weed control at 62.5 g/ha / pest or weed control at 250 g/ha: evaluated after 13 days; for pest or weed control at 250 g/ha: 250 g ai/ha, read-out: damage to plant, Morningglory, Ivy-leaved (100=total damage to plant; 0=no damage to plant)
In short: as §2

[11] = test system: barnyardgrass (Echinochloa crus-galli); assay: Test G Post-Emergence Protocol; details: Echinochloa crus-galli, post-emergence, 312 h; for pest or weed control at 15.625 g/ha: 15.625 g ai/ha, evaluated after 13 days (100=total damage to plant; 0=no damage to plant), read-out: Barnyardgrass damage rating; for pest or weed control at 62.5 g/ha: 62.5 g ai/ha, read-out: Barnyardgrass damage rating (100=total damage to plant; 0=no damage to plant); for pest or weed control at 62.5 g/ha / pest or weed control at 250 g/ha: evaluated after 13 days; for pest or weed control at 250 g/ha: 250 g ai/ha, read-out: damage to plant, Barnyardgrass (100=total damage to plant; 0=no damage to plant)
In short: as §2

[12] = test system: giant foxtail (Setaria faberi); assay: Test G Post-Emergence Protocol; details: Setaria faberi, post-emergence, 312 h; for pest or weed control at 15.625 g/ha: 15.625 g ai/ha, evaluated after 13 days (100=total damage to plant; 0=no damage to plant), read-out: Foxtail, Giant damage rating; for pest or weed control at 62.5 g/ha: 62.5 g ai/ha, read-out: Foxtail, Giant damage rating (100=total damage to plant; 0=no damage to plant); for pest or weed control at 62.5 g/ha / pest or weed control at 250 g/ha: evaluated after 13 days; for pest or weed control at 250 g/ha: 250 g ai/ha, read-out: damage to plant, Foxtail, Giant (100=total damage to plant; 0=no damage to plant)
In short: as §2

SMILES	pest or weed control at 15.625 g/ha [1] [%]	pest or weed control at 62.5 g/ha [1] [%]	pest or weed control at 250 g/ha [1] [%]	plant injury at 15.625 g/ha [2] [%]	plant injury at 62.5 g/ha [2] [%]	plant injury at 250 g/ha [2] [%]	pest or weed control at 15.625 g/ha [3] [%]	pest or weed control at 62.5 g/ha [3] [%]	pest or weed control at 250 g/ha [3] [%]	pest or weed control at 15.625 g/ha [4] [%]	pest or weed control at 62.5 g/ha [4] [%]	pest or weed control at 250 g/ha [4] [%]	pest or weed control at 15.625 g/ha [5] [%]	pest or weed control at 62.5 g/ha [5] [%]	pest or weed control at 250 g/ha [5] [%]	pest or weed control at 15.625 g/ha [6] [%]	pest or weed control at 62.5 g/ha [6] [%]	pest or weed control at 250 g/ha [6] [%]	pest or weed control at 15.625 g/ha [7] [%]	pest or weed control at 62.5 g/ha [7] [%]	further results
CN1C[C@@H](c2ccc(C(F)(F)F)cc2)[C@H](C(=O)Nc2ccccc2C#N)C1=O (racemic) [Compound 1599]	0	40	70	0	10	40	0	30	20	10	10	10	0	70	70	20	60	80	0	50	pest or weed control at 250 g/ha [7]: 50%; plant injury at 15.625 g/ha [8]: 0%; plant injury at 62.5 g/ha [8]: 0%; plant injury at 250 g/ha [8]: 40%; pest or weed control at 15.625 g/ha [9]: 0%; pest or weed control at 62.5 g/ha [9]: 30%; pest or weed control at 250 g/ha [9]: 40%; pest or weed control at 15.625 g/ha [10]: 50%; pest or weed control at 62.5 g/ha [10]: 60%; pest or weed control at 250 g/ha [10]: 50%; pest or weed control at 15.625 g/ha [11]: 10%; pest or weed control at 62.5 g/ha [11]: 70%; pest or weed control at 250 g/ha [11]: 70%; pest or weed control at 15.625 g/ha [12]: 60%; pest or weed control at 62.5 g/ha [12]: 80%; pest or weed control at 250 g/ha [12]: 80%
CN1C[C@@H](c2ccc(C(F)(F)F)cc2)[C@H](C(=O)Nc2ccc(Cl)cc2F)C1=O (racemic) [Compound 1602]	0	30	40	0	0	0	0	0	10	0	0	0	0	0	40	0	30	70	0	50	pest or weed control at 250 g/ha [7]: 70%; plant injury at 15.625 g/ha [8]: 0%; plant injury at 62.5 g/ha [8]: 0%; plant injury at 250 g/ha [8]: 20%; pest or weed control at 15.625 g/ha [9]: 0%; pest or weed control at 62.5 g/ha [9]: 20%; pest or weed control at 250 g/ha [9]: 40%; pest or weed control at 15.625 g/ha [10]: 10%; pest or weed control at 62.5 g/ha [10]: 50%; pest or weed control at 250 g/ha [10]: 50%; pest or weed control at 15.625 g/ha [11]: 0%; pest or weed control at 62.5 g/ha [11]: 20%; pest or weed control at 250 g/ha [11]: 40%; pest or weed control at 15.625 g/ha [12]: 0%; pest or weed control at 62.5 g/ha [12]: 60%; pest or weed control at 250 g/ha [12]: 80%
CSc1nnc(NC(=O)[C@@H]2C(=O)N(C)C[C@H]2c2ccc(C(F)(F)F)cc2)[nH]1 (racemic) [Compound 1603]	0	0	0	0	0	0	0	0	0	0	0	0	0	0	0	0	0	0	0	0	pest or weed control at 250 g/ha [7]: 0%; plant injury at 15.625 g/ha [8]: 0%; plant injury at 62.5 g/ha [8]: 0%; plant injury at 250 g/ha [8]: 0%; pest or weed control at 15.625 g/ha [9]: 0%; pest or weed control at 62.5 g/ha [9]: 0%; pest or weed control at 250 g/ha [9]: 0%; pest or weed control at 15.625 g/ha [10]: 0%; pest or weed control at 62.5 g/ha [10]: 0%; pest or weed control at 250 g/ha [10]: 0%; pest or weed control at 15.625 g/ha [11]: 0%; pest or weed control at 62.5 g/ha [11]: 0%; pest or weed control at 250 g/ha [11]: 0%; pest or weed control at 15.625 g/ha [12]: 0%; pest or weed control at 62.5 g/ha [12]: 0%; pest or weed control at 250 g/ha [12]: 0%
